# Reference: patent US10947252B2, “Inhibitors of KEAP1-Nrf2 protein-protein interaction” (Janssen Pharmaceutica NV, priority 2018, dated 2021)
# Key:
# [1] = tested on: Glo-Response ARE-luc2P HEK293 cell line; assay: ARE luciferase reporter cell-based assay; conditions: Homo sapiens, HEK293, 24 h, average of results obtained;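 also: luciferase signal tracks Nrf2 activation of the ARE once compounds disrupt KEAP1-Nrf2 binding, read with One-Glo reagent, DMSO serving as low control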
# [2] = target: Kelch domain of human KEAP1 (321-624 aa) (Homo sapiens (Human), UniProt Q14145); assay: KEAP1 KELCH ThermoFluor binding assay; conditions: KEAP Kelch […], 1,8-ANS, pH 7.0, average of results obtained, read-out: Tf Kd;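 also: Ligand-induced melting temperature shift of E. coli-expressed KEAP1 Kelch protein, Kd estimated from concentration-response curves of ΔTm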
# Kelch domain of human KEAP1 (321-624 aa), sequence (Q14145 321-624): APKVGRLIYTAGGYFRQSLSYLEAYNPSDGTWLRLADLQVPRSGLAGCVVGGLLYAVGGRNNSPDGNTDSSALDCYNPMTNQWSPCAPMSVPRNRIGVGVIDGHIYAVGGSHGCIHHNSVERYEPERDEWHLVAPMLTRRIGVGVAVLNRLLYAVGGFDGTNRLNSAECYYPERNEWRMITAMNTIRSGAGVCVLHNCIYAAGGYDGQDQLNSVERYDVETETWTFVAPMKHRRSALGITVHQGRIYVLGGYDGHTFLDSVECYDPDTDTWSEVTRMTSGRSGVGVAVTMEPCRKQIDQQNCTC
SMILES,EC50 [1],Kd [2]
"CCn1nnc2c(C)c(C(CC(=O)O)c3ccc(C)c(CN4CC5(COC5)Oc5ncccc5S4(=O)=O)c3)ccc21 (stereo not shown) [Example 252, 3-(3-((1′,1′-Dioxidospiro[oxetane-3,4′-pyrido[2,3-b][1,4,5]oxathiazepin]-2′(3′H)-yl)methyl)-4-methylphenyl)-3-(1-ethyl-4-methyl-1H-benzo[d][1,2,3]triazol-5-yl)propanoic Acid]",21 nM,< 1 nM
"Cc1ccc([C@@H](CC(=O)O)c2ccn3c(C(F)(F)F)nnc3c2C)cc1CN1C[C@H]2CCN2c2ncccc2S1(=O)=O (single isomer, unassigned) [Example 295, (*R)-3-(3-(((*R)-5,5-Dioxido-7,7a,8,9-tetrahydro-6H-azeto[2,1-d]pyrido[2,3-f][1,2,5]thiadiazepin-6-yl)methyl)-4-methylphenyl)-3-(8-methyl-3-(trifluoromethyl)-[1,2,4]triazolo[4,3-a]pyridin-7-yl)propanoic Acid]",2090 nM,8.07 nM
"Cc1cnc2c(c1)S(=O)(=O)N(Cc1cc([C@@H](c3ccn4c(C(F)F)nnc4c3C)C(C)(C)C(=O)O)ccc1C)CC1(CC1)O2 (single isomer, unassigned) [Example 560, (*S)-3-(3-(Difluoromethyl)-8-methyl-[1,2,4]triazolo[4,3-a]pyridin-7-yl)-2,2-dimethyl-3-(4-methyl-3-((8′-methyl-1′,1′-dioxidospiro[cyclopropane-1,4′-pyrido[2,3-b][1,4,5]oxathiazepin]-2′(3′H)-yl)methyl)phenyl)propanoic Acid]",1.9 nM,< 1 nM
"Cc1ncc([C@H](c2ccn3c(C(F)(F)F)nnc3c2C)C(C)(C)C(=O)O)cc1CN1CC2(CCOCC2)Oc2ncccc2S1(=O)=O (single isomer, unassigned) [Example 570, (*S)-3-(5-((1′,1′-Dioxido-2,3,5,6-tetrahydrospiro[pyran-4,4′-pyrido[2,3-b][1,4,5]oxathiazepin]-2′(3′H)-yl)methyl)-6-methylpyridin-3-yl)-2,2-dimethyl-3-(8-methyl-3-(trifluoromethyl)-[1,2,4]triazolo[4,3-a]pyridin-7-yl)propanoic Acid]",1120 nM,< 1 nM
"Cc1ccc([C@H](CC(=O)O)c2ccn3c(C(F)F)nnc3c2C)cc1CN1C[C@H]2CCCN2c2ncccc2S1(=O)=O (single isomer, unassigned) [Example 450, (*S)-3-(3-(Difluoromethyl)-8-methyl-[1,2,4]triazolo[4,3-a]pyridin-7-yl)-3-(3-(((R)-5,5-dioxido-7a,8,9,10-tetrahydropyrido[2,3-f]pyrrolo[2,1-d][1,2,5]thiadiazepin-6(7H)-yl)methyl)-4-methylphenyl)propanoic Acid]",25.1 nM,< 1 nM
"CCn1nnc2c(C)c([C@H](c3cc(CN4CC5(CC5)Oc5ncc(C)cc5S4(=O)=O)c(C)cn3)C(C)(C)C(=O)O)ccc21 (single isomer, unassigned) [Example 594, (*S)-3-(1-Ethyl-4-methyl-1H-benzo[d][1,2,3]triazol-5-yl)-2,2-dimethyl-3-(5-methyl-4-((8′-methyl-1′,1′-dioxidospiro[cyclopropane-1,4′-pyrido[2,3-b][1,4,5]oxathiazepin]-2′(3′H)-yl)methyl)pyridin-2-yl)propanoic Acid]",3.3 nM,< 1 nM
"Cc1ccc([C@H](CC(=O)O)c2ccn3c(C(F)(F)F)nnc3c2C)cc1CN1CC2(COC2)Oc2ccc(F)cc2S1(=O)=O (single isomer, unassigned) [Example 99, (*S)-3-(3-((8-Fluoro-1,1-dioxidospiro[benzo[b][1,4,5]oxathiazepine-4,3′-oxetan]-2(3H)-yl)methyl]-4-methylphenyl)-3-(8-methyl-3-(trifluoromethyl)-[1,2,4]triazolo[4,3-a]pyridin-7-yl)propanoic Acid]",5.8 nM,< 1 nM
"Cc1cnc([C@H](c2ccn3c(C(F)F)nnc3c2C)C(C)(C)C(=O)O)cc1CN1CC2(CC2)Oc2nc(OCCN3CCCC3)c(C)cc2S1(=O)=O (single isomer, unassigned) [Example 635, (*R)-3-(3-(Difluoromethyl)-8-methyl-[1,2,4]triazolo[4,3-a]pyridin-7-yl)-2,2-dimethyl-3-(5-methyl-4-((8′-methyl-1′,1′-dioxido-7′-(2-(pyrrolidin-1-yl)ethoxy)spiro[cyclopropane-1,4′-pyrido[2,3-b][1,4,5]oxathiazepin]-2′(3′H)-yl)methyl)pyridin-2-yl)propanoic Acid]",3590 nM,1190 nM
"Cc1ccc([C@H](CC(=O)O)c2ccn3c(C(F)F)nnc3c2C)cc1CN1CC2(COC2)Oc2ncccc2S1(=O)=O (single isomer, unassigned) [Example 470, (*S)-3-(3-(Difluoromethyl)-8-methyl-[1,2,4]triazolo[4,3-a]pyridin-7-yl)-3-(3-((1′,1′-dioxidospiro[oxetane-3,4′-pyrido[2,3-b][1,4,5]oxathiazepin]-2′(3′H)-yl)methyl)-4-methylphenyl)propanoic Acid]",472 nM,< 1 nM
"Cc1ccc([C@@H](c2ccn3c(C(F)(F)F)nnc3c2C)C(C)(C)C(=O)O)cc1CN1CC2(CCOCC2)Oc2nc(OC(C)CN3CCCCC3)c(C)cc2S1(=O)=O (stereo in doubt) [Example 600, (*S)-2,2-Dimethyl-3-(4-methyl-3-((8′-methyl-1′,1′-dioxido-7′-((1-(piperidin-1-yl)propan-2-yl)oxy)-2,3,5,6-tetrahydrospiro[pyran-4,4′-pyrido[2,3-b][1,4,5]oxathiazepin]-2′,(3′H)-yl)methyl)phenyl)-3-(8-methyl-3-(trifluoromethyl)-[1,2,4]triazolo[4,3-a]pyridine-7-yl)propanoic Acid]",4.58 nM,< 1 nM
"Cc1ccc([C@@H](CC(=O)O)c2ccn3c(C(F)(F)F)nnc3c2C)cc1CN1C[C@@H]2CCCN2c2ccccc2S1(=O)=O (single isomer, unassigned) [Example 275, (*R)-3-(3-(((S)-5,5-Dioxido-7a,8,9,10-tetrahydrobenzo[f]pyrrolo[2,1-d][1,2,5]thiadiazepin-6(7H)-yl)methyl)-4-methylphenyl)-3-(8-methyl-3-(trifluoromethyl)-[1,2,4]triazolo[4,3-a]pyridin-7-yl)propanoic Acid]",399 nM,8.69 nM
"Cc1ccc(C(CC(=O)O)c2ccn3c(C(F)F)nnc3c2C)cc1CN1C[C@H]2CCCN2c2ncc(C#N)cc2S1(=O)=O (stereo in doubt) [Example 539, 3-(3-(((*R)-3-Cyano-5,5-dioxido-7a,8,9,10-tetrahydropyrido[2,3-f]pyrrolo[2,1-d][1,2,5]thiadiazepin-6(7H)-yl)methyl)-4-methylphenyl)-3-(3-(difluoromethyl)-8-methyl-[1,2,4]triazolo[4,3-a]pyridin-7-yl)propanoic Acid]",76 nM,< 1 nM
"Cc1ccc([C@@H](c2ccn3c(C(F)(F)F)nnc3c2C)C(C)(C)C(=O)O)cc1CN1CC2(CCOCC2)Oc2nc(OCCN3CCOCC3)ccc2S1(=O)=O (single isomer, unassigned) [Example 47, (*S)-2,2-Dimethyl-3-(4-methyl-3-((7′-(2-morpholinoethoxy)-1′,1′-dioxido-2,3,5,6-tetrahydrospiro[pyran-4,4′-pyrido[2,3-b][1,4,5]oxathiazepin]-2′(3′H)-yl)methyl)phenyl)-3-(8-methyl-3-trifluoromethyl)-[1,2,4]triazolo[4,3-a]pyridine-7-yl)propanoic Acid]",17.9 nM,< 1 nM
"Cc1ccc([C@H](c2ccn3c(C(F)(F)F)nnc3c2C)C(C)(C)C(=O)O)cc1CN1CC2(CC2)Oc2ncccc2S1(=O)=O (single isomer, unassigned) [Example 318, (*R)-3-(3-((1′,1′-Dioxidospiro[cyclopropane-1,4′-pyrido[2,3-b][1,4,5]oxathiazepin]-2′(3′H)-yl)methyl)-4-methylphenyl)-2,2-dimethyl-3-(8-methyl-3-(trifluoromethyl)-[1,2,4]triazolo[4,3-a]pyridin-7-yl)propanoic Acid]",598 nM,1990 nM
"Cc1ccc([C@@H](c2ccn3c(C4CC4)nnc3c2C)C(C)(C)C(=O)O)cc1CN1CC2(CCOCC2)Oc2ncccc2S1(=O)=O (single isomer, unassigned) [Example 41, (*S)-3-(3-Cyclopropyl-8-methyl-[1,2,4]triazolo[4,3-a]pyridin-7-yl)-3-(3-((1′,1′-dioxido-2,3,5,6-tetrahydrospiro[pyran-4,4′-pyrido[2,3-b][1,4,5]oxathiazepin]-2′(3′H)-yl)methyl)-4-methylphenyl)-2,2-dimethylpropanoic Acid]",46 nM,< 1 nM
"Cc1ccc([C@H](CC(N)=O)c2ccn3c(C(F)(F)F)nnc3c2C)cc1CN1C[C@@H]2CCCCN2c2ncccc2S1(=O)=O (single isomer, unassigned) [Example 548, (*S)-3-(3-(((*S)-5,5-Dioxido-7,7a,8,9,10,11-hexahydro-6H-dipyrido[2,1-d:2′,3′-f][1,2,5]thiadiazepin-6-yl)methyl)-4-methylphenyl)-3-(8-methyl-3-(trifluoromethyl)-[1,2,4]triazolo[4,3-a]pyridin-7-yl)propanamide]",2740 nM,260 nM
"Cc1ccc(C(CC(=O)O)c2ccc3c(nnn3CC3CC3)c2C)cc1CN1C[C@H]2CCCCN2c2ncccc2S1(=O)=O (mixture of isomers) [Example 234, (R/S)-3-(1-(Cyclopropylmethyl)-4-methyl-1H-benzo[d][1,2,3]triazol-5-yl)-3-(3-(((*R)-5,5-dioxido-7,7a,8,9,10,11-hexahydro-6H-dipyrido[2,1-d:2′,3′-f][1,2,5]thiadiazepin-6-yl)methyl)-4-methylphenyl)propanoic Acid]",3.3 nM,< 1 nM
